Source: US9458188B2, “Efficient peptide couplings and their use in the synthesis and isolation of a cyclopenta (G) quinazoline trisodium salt” (BTG INTERNATIONAL LIMITED, priority 2010, dated 2016)
pIC50, pKi: −log10 of the molar value.

Legend:
[1] = Chemical stability under acidic conditions; assay type: physicochemical; conditions: pH 5
Protocol: The reported chemistry was carried out on a very small scale, with no detailed analysis of the purity profile of the product 1.

[2] = system: thymidilate synthase; conditions: read-out: IC50 for the enzyme (thymidilate synthase); cited from earlier work
[3] = target: T1, reduced folate carrier protein (RFCP) (Homo sapiens, UniProt P41440); conditions: not a substrate for RFCP; cited from earlier work
T1 sequence (P41440 1-591): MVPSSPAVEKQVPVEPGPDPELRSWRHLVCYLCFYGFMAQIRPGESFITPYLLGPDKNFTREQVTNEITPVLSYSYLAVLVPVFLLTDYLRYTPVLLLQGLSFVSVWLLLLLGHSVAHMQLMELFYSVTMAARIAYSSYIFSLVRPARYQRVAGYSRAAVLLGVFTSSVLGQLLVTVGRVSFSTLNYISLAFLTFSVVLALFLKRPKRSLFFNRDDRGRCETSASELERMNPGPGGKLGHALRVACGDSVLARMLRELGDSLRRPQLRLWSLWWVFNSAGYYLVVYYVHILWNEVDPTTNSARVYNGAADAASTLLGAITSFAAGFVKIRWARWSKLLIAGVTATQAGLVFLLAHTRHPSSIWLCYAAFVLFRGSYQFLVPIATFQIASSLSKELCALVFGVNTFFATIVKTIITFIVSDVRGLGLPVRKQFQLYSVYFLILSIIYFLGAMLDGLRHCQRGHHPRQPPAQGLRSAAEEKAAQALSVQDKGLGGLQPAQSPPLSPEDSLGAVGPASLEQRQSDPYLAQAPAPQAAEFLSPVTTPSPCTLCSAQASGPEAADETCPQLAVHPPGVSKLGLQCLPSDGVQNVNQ

[4] = target: T2, polyglutamoylation synthase enzyme (Homo sapiens, UniProt Q05932); conditions: cited from earlier work
T2 sequence (Q05932 43-587): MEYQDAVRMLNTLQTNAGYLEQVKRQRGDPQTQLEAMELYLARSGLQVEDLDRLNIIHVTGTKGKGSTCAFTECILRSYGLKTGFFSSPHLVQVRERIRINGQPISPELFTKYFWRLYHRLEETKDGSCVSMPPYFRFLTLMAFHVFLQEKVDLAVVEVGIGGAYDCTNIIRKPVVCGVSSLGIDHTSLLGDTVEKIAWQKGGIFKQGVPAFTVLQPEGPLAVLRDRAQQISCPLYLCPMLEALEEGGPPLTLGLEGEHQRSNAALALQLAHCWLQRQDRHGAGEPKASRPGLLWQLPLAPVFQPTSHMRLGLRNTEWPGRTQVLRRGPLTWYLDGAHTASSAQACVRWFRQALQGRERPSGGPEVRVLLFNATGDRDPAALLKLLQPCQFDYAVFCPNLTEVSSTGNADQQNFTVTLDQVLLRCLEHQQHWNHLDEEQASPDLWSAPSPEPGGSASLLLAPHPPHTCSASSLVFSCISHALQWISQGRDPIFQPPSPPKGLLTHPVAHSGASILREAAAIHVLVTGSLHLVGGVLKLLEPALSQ

[5] = target: folate receptor α (FRα) (Homo sapiens, UniProt P15328); conditions: read-out: Ki (affinity) for folate receptor α (FRα); cited from earlier work
Sequence of folate receptor α (FRα) (P15328 25-234, species assumed): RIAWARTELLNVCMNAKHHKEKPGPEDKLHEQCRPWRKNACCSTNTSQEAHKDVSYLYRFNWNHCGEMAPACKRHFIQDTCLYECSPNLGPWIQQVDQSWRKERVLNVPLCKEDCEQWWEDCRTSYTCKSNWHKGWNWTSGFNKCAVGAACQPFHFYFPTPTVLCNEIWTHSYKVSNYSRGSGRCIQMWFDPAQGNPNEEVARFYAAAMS

Row | SMILES | Stability in aqueous solution [1] | pIC50 [2] | pKi [3] | Substrate for the polyglutamoylation synthase enzyme [4] | pKi [5]
1 | C#CCN(c1ccc(C(=O)N[C@@H](CCC(=O)N[C@H](CCC(=O)O)C(=O)O)C(=O)O)cc1)[C@H]1CCc2cc3nc(CO)[nH]c(=O)c3cc21 [Compound 1, (2,R)-((4,S)-carboxy-4-(4,N-(((6S)-2-(hydroxymethyl)-4-oxo-3,4,7,8-tetrahydro-3H-cyclopenta[g]quinazolin-6-yl)-N-(prop-2-ynyl)amino)benzamido)butanamido)pentanedioic acid] | limited stability | – | – | – | –
2 | C#CCN(c1ccc(C(=O)N[C@@H](CCC(=O)N[C@H](CCC(=O)[O-])C(=O)[O-])C(=O)[O-])cc1)[C@H]1CCc2cc3nc(CO)[nH]c(=O)c3cc21.[Na+].[Na+].[Na+] [Compound 2, (2,R)-((4,S)-carboxy-4-(4,N-(((6S)-2-(hydroxymethyl)-4-oxo-3,4,7,8-tetrahydro-3H-cyclopenta[g]quinazolin-6-yl)-N-(prop-2-ynyl)amino)benzamido)butanamido)pentanedioic acid trisodium salt] | – | 8.52 | < 3.60 | not a substrate | 9.30
